Assay results taken from PubChem BioAssay (NCI).
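Following 48 hours of exposure in 96-well plates, responses at five concentrations were used to interpolate endpoints linearly. GI50: concentration for 50% inhibition of growth. TGI marks complete inhibition of growth.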

What was measured:
Assay in all cases: NCI-60 cell line screen, 48 h
ACHN renal = tested on: ACHN renal
K-562 leukemia = tested on: K-562 leukemia
MOLT-4 leukemia = tested on: MOLT-4 leukemia
NCI-H522 lung = tested on: NCI-H522 lung
SF-295 CNS = tested on: SF-295 CNS
SK-OV-3 ovarian = tested on: SK-OV-3 ovarian
SK-MEL-5 melanoma = tested on: SK-MEL-5 melanoma
BT-549 breast = tested on: BT-549 breast
HS 578T breast = tested on: HS 578T breast
MCF7 breast = tested on: MCF7 breast

SMILES | TGI (ACHN renal) [µM] | TGI (K-562 leukemia) [µM] | TGI (MOLT-4 leukemia) [µM] | TGI (NCI-H522 lung) [µM] | TGI (SF-295 CNS) [µM] | TGI (SK-OV-3 ovarian) [µM] | TGI (SK-MEL-5 melanoma) [µM] | TGI (BT-549 breast) [µM] | TGI (HS 578T breast) [µM] | TGI (MCF7 breast) [µM] | GI50 (ACHN renal) [µM] | GI50 (BT-549 breast) [µM] | GI50 (HS 578T breast) [µM] | GI50 (K-562 leukemia) [µM] | GI50 (MCF7 breast) [µM] | GI50 (MOLT-4 leukemia) [µM] | GI50 (NCI-H522 lung) [µM] | GI50 (SF-295 CNS) [µM] | GI50 (SK-OV-3 ovarian) [µM] | GI50 (SK-MEL-5 melanoma) [µM]
CC1CC2(S(=O)(=O)c3ccccc3)ON1CC2S(=O)(=O)c1ccccc1 (centres undefined) | > 100 | > 100 | > 100 | > 100 | > 100 | > 100 | – | – | – | – | – | – | – | – | – | – | – | – | – | –
COC(=O)C(=O)C(CC(=O)Nc1ccc(C)cc1)C(=O)OC (centres undefined) | > 100 | > 100 | > 100 | > 100 | > 100 | > 100 | > 100 | – | – | – | – | – | – | – | – | – | – | – | – | –
CN(C)C(=S)/N=c1\ssc(=S)n1C | > 100 | > 100 | > 100 | > 100 | > 100 | > 100 | > 100 | – | – | – | – | – | – | – | – | – | – | – | – | –
CC1=Nc2ccccc2SC(c2c(Cl)cccc2Cl)C1 (centres undefined) | 3.19 | 1.71 | 12.4 | 2.23 | 2.79 | 6.44 | 3.06 | – | – | – | – | – | – | – | – | – | – | – | – | –
O=[N+]([O-])c1cc([As](Br)c2ccc(O)c([N+](=O)[O-])c2)ccc1O | 3.77 | > 23.2 | – | 0.45 | 3.61 | 9.71 | 3.1 | 3.84 | 5.93 | > 20.8 | – | – | – | – | – | – | – | – | – | –
C[N+](C)(C)CC1CCCCC1=O (centres undefined) | 34.4 | 64.3 | 35.3 | 36.2 | > 100 | > 100 | 80.3 | – | – | – | – | – | – | – | – | – | – | – | – | –
CN(C)N1C(=O)SCC(c2ccccc2)(c2ccccc2)C1=O | > 100 | > 100 | > 100 | > 100 | > 100 | > 100 | > 100 | – | > 100 | > 100 | – | – | – | – | – | – | – | – | – | –
NC(=O)c1cccnc1 | > 100 | > 100 | > 100 | > 100 | > 100 | > 100 | – | > 100 | > 100 | > 100 | > 100 | > 100 | > 100 | > 100 | > 100 | > 100 | > 100 | > 100 | > 100 | –
N=c1c2ccccc2sc2nc3ccccc3n12 | > 100 | > 100 | > 100 | > 100 | > 100 | > 100 | > 100 | – | – | – | – | – | – | – | – | – | – | – | – | –
COc1ccc(-c2nc(-c3nc4cc(Cl)c(F)cc4[nH]3)c3ccccn23)cc1 | > 100 | > 100 | > 100 | > 100 | – | > 100 | 6.79 | > 100 | > 100 | > 100 | 7.34 | 4.91 | 12.2 | 4.84 | 4.57 | 4.21 | 4.39 | – | > 100 | 2.22
COc1ccc(O)c(C(=O)CCC(=O)O)c1 | > 100 | > 100 | > 100 | > 100 | > 100 | > 100 | > 100 | – | – | – | – | – | – | – | – | – | – | – | – | –
COc1ccc(C(=O)c2sc3nc(-c4ccccc4OC)ccc3c2N)cc1OC | > 100 | > 100 | – | 8.89 | 54.3 | > 100 | 5.68 | 17 | 74.2 | > 100 | 7.24 | 3.14 | 4.26 | 5.1 | 4.75 | – | 2.5 | 4.37 | 30.6 | 2.05
CC(=O)c1ccc(NC(=O)C(=O)C(C(=O)/C=C/c2ccccc2)C2OC(=O)c3ccccc32)cc1 (centres undefined) | > 100 | > 100 | > 100 | > 100 | > 100 | > 100 | > 100 | – | – | – | – | – | – | – | – | – | – | – | – | –
O=C1c2ccccc2C(=O)C12CCc1ccccc12 | > 100 | > 100 | > 100 | – | > 100 | > 100 | – | – | – | – | – | – | – | – | – | – | – | – | – | –
COC(=O)c1cc(=O)nc2cc3cccccc3n12 | > 100 | > 100 | > 100 | > 100 | > 100 | > 100 | > 100 | – | – | – | – | – | – | – | – | – | – | – | – | –
CC(C)(C)NCC(O)COc1c(Br)c(Br)c(Br)c2c1OC(C)(C)C2 (centres undefined) | 3.35 | 2.94 | 3.16 | 3.81 | 3.95 | 3.3 | 2.89 | 3.11 | – | 3.24 | 1.9 | 1.69 | – | 1.54 | 1.76 | 1.59 | 1.99 | 2.26 | 1.83 | 1.55
CCC1=CCN(c2cc(C)ccn2)OC1c1ccccc1 (centres undefined) | > 100 | > 100 | > 100 | 62.1 | > 100 | > 100 | – | – | – | – | – | – | – | – | – | – | – | – | – | –
CC(=O)OC(C(=O)[O][Sn]([CH3])([CH3])[CH3])c1ccccc1 (centres undefined) | > 100 | > 100 | > 100 | 62.6 | > 100 | > 100 | > 100 | – | – | – | > 100 | – | – | > 100 | – | > 100 | 19.9 | > 100 | > 100 | > 100
CN/N=C(/c1nc2ccc([N+](=O)[O-])cc2[nH]c1=O)C(O)c1ccc(C(O)/C(=N\NC)c2nc3ccc([N+](=O)[O-])cc3[nH]c2=O)cc1 (centres undefined) | > 100 | > 100 | > 100 | – | > 100 | > 100 | > 100 | – | – | – | – | – | – | – | – | – | – | – | – | –
CCCCCCC(O)CC[C@H]1CCC[C@@H](C)N1 (some centres undefined) | > 100 | > 100 | > 100 | > 100 | > 31.6 | > 100 | > 100 | – | – | – | – | – | – | – | – | – | – | – | – | –
CCOc1ccc(N=C2NC(=O)C(CC(=O)Nc3ccccc3[N+](=O)[O-])S2)cc1 (centres undefined) | > 100 | > 100 | > 100 | > 100 | > 100 | – | > 100 | – | – | – | – | – | – | – | – | – | – | – | – | –
O=c1c2c(-c3ccccc3)c3ccccc3nc2cnn1-c1ccccc1 | > 100 | > 100 | > 100 | > 100 | > 100 | > 100 | > 100 | – | – | – | – | – | – | – | – | – | – | – | – | –
COc1ccc(/C=C2\CCC(CCN(C)C)(C3=CCCC3)C2=O)cc1 (centres undefined) | 31.2 | 41.8 | 51 | 31.2 | 33.4 | – | 30.3 | – | – | – | – | – | – | – | – | – | – | – | – | –
